Molecular target: T1, GRPR (Homo sapiens, UniProt P30550)
T1 construct: Experiments were performed on GRPR-expressing PC-3 cells following our previously described procedure; endogenous in cells; host or cells: PC-3 human prostate carcinoma cells
Assay: Displacement cell-binding assay with ^125I-[Tyr4]BBN on PC-3 cells
Settings: PC-3 cells, FIG. 14B
Experimental: Experiments were performed with triplicate samples.
BBN as the radioligand. […] Experiments were performed twice with triplicate samples.

T1 sequence (P30550 whole entry): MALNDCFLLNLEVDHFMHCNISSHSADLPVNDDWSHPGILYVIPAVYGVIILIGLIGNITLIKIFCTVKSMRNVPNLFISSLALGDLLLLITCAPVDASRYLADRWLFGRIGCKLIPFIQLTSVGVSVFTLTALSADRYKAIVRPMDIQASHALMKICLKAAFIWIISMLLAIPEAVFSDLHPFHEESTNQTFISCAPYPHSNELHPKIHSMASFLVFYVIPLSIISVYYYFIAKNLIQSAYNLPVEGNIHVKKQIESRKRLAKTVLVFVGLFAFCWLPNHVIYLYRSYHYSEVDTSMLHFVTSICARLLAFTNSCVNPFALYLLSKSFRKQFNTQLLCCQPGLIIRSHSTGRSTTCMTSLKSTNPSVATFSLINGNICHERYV

Q: For `N=C(N)NCCC[C@@H]1NC(=O)[C@H](CCCCN)NC(=O)[C@@H](Cc2ccc(O)cc2)NC(=O)[C@H](CC(=O)O)NC(=O)CNC1=O` [c(RGDyK), cyclo(Arg-Gly-Asp-D-Tyr-Lys), reference compound], which “binding inhibition of ^125I-[Tyr4]BBN with GRPR” value is on record?
A: The value was “did not show significant binding inhibition”.
